Read-outs that look alike come from different tables or passages of the source.
Columns and labels:
rat CYP24A1 = target: T1, rat CYP24A1 (Rattus norvegicus, UniProt Q09128); test: Kinetics of metabolism of analogs in phospholipid vesicles by rat CYP24A1; type: in vitro ADME; settings: for Km: rat CYP24A1 0.14 µM, phospholipid vesicles, 1 min incubation, ± SE from curve fit
T1 construct: made in house; host or cells: E. coli
T1 sequence (Q09128 36-514): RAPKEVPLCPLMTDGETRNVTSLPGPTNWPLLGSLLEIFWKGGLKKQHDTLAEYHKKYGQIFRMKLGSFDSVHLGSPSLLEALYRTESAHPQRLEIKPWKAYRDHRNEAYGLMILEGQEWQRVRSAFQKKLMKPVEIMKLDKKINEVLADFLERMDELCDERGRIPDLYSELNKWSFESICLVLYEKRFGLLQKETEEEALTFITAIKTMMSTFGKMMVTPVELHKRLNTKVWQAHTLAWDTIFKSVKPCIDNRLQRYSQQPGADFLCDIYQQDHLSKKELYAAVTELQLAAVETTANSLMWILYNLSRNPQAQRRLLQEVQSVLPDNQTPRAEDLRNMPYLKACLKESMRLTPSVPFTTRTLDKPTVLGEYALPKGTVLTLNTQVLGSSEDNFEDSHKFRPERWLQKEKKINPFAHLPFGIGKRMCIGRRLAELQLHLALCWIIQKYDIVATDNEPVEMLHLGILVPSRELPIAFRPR
Description: An incubation time of 1 min was chosen to obtain the initial rate based on the time courses (Fig. 6) and previous studies[28],[29].
To test metabolism of each analog, they were incorporated into phospholipid vesicles made from dioleoyl phosphatidylcholine and cardiolipin by sonication, as before[24],[28]. […] Samples from incubations with CYP24A1 were extracted with dichloromethane and analysed by HPLC using a 25 cm Grace Alltima C18 column, as before[27],[28]. […] For the more polar 33, the acetonitrile gradient was 30% to 100% acetonitrile for 30 min then 100% acetonitrile for 20 min, at 0.5 mL/min.

mouse CYP27B1 = target: T2, mouse CYP27B1 (Mus musculus, UniProt O35084); test: Metabolism (1α-hydroxylation) of analogs by mouse CYP27B1; type: in vitro ADME
T2 construct: made in house; host or cells: E. coli
T2 sequence (O35084 1-507): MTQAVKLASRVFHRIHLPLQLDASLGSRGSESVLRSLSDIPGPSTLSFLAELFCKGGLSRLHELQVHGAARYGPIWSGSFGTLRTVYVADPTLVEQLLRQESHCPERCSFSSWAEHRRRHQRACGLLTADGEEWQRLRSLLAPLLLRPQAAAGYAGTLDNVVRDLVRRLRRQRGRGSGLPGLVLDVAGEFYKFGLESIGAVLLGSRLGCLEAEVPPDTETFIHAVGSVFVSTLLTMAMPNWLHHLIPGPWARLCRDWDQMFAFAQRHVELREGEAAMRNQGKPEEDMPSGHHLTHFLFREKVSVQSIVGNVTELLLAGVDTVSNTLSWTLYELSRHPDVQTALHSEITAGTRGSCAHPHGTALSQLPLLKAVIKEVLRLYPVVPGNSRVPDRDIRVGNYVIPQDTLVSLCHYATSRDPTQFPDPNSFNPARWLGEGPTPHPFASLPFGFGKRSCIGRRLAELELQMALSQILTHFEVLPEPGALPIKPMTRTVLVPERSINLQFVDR
Description: In order to make the 1α-OH derivatives of the 20S(OH)D3 analogs enzymatically, and to assess their likely capacity to be 1α-hydroxylated in vivo, the ability of mouse CYP27B1 to hydroxylate these metabolites was examined. 25(OH)D3, the major natural substrate for CYP27B1[2],[30], was included for comparison. The 20S(OH)D3 analogs were incorporated into phospholipid vesicles and incubated with CYP27B1, then the extent of their metabolism was determined by HPLC (Table 2). All analogs tested except 33 were metabolized by CYP27B1. In each case only a single metabolite was produced, assumed to be the 1α-OH derivative based on the known high specificity of the enzyme for the 1α-position[24],[30],[31]. […] Metabolism of 4 was almost twice that of 20S(OH)D3 and metabolism of 23 almost three fold. Thus, the modifications to C24 and/or C25 seen in 13, 4 and 23 enhanced their ability to be metabolized by CYP27B1. […] In contrast, the introduction of an amide linkage into the side chain, as in 33, prevented its hydroxylation by CYP27B1.
Rat CYP24A1, mouse CYP27B1 and adrenodoxin and human adrenodoxin reductase were expressed in E. coli and purified as described before[28],[30],[35]. To test metabolism of each analog, they were incorporated into phospholipid vesicles made from dioleoyl phosphatidylcholine and cardiolipin by sonication, as before[24],[28]. The substrates in vesicles (510 µM phospholipid) were incubated at 37 °C with either CYP24A1 (0.14 µM) or CYP27B1 (0.8 µM) in a reconstituted system containing adrenodoxin (15 µM) and adrenodoxin reductase (0.4 µM). Samples from incubations with CYP24A1 were extracted with dichloromethane and analysed by HPLC using a 25 cm Grace Alltima C18 column, as before[27],[28]. Products (except 33) were separated using an acetonitrile on water gradient (45% to 100% for 20 min then 100% acetonitrile for 40 min at a flow rate of 0.5 mL/min). For the more polar 33, the acetonitrile gradient was 30% to 100% acetonitrile for 30 min then 100% acetonitrile for 20 min, at 0.5 mL/min. Products from incubations with CYP27B1 were similarly extracted with dichloromethane and analyzed by reverse phase HPLC using a 15 cm Grace Smart C18 column and an acetonitrile in water gradient (10 min 45% to 100% acetonitrile then 20 min at 100% acetonitrile, at 0.5 mL/min).

IFNγ production = test: IFNγ inhibition assay in anti-CD3 activated splenocytes; settings: for activity at 0.1 µM: Mus musculus, Splenocyte, 72 h, read-out: IFNγ (ratio ± SD)
[1] = rats; cited from earlier work
[2] = set-up: method as in earlier work; settings: mice, doses as high as 60 µg/kg; cited from earlier work
[3] = test system: collagen-induced arthritis; set-up: method as in earlier work; settings: mouse model, dose as low as 2 µg/kg; cited from earlier work

| Km, fold lower than that for 20S(OH)D3 (rat CYP24A1; rat CYP24A1) | kcat/Km, higher than for the next best analog, 4 (rat CYP24A1; rat CYP24A1) [%] | Km (rat CYP24A1) [mmol/mol PL] | conversion to product by CYP27B1, fold higher than 20S(OH)D3 (mouse CYP27B1; 20 min incubation) [fold] | Km, fold higher than for 4 (rat CYP24A1; rat CYP24A1) | catalytic efficiency, fold lower than for 13 (rat CYP24A1; rat CYP24A1) [fold] | Product (% total secosteroids) (mouse CYP27B1; 0.018 mol/mol phospholipid, 0.8 µM mouse CYP27B1, 20 min, 37 °C) | SMILES | activity at 0.1 µM (IFNγ production) [%] | hypercalcemia [1] | hypercalcemia [2] | effect on collagen-induced arthritis [3] | decrease of IFNγ production level (IFNγ production; 100 nM) [%] |
| --- | --- | --- | --- | --- | --- | --- | --- | --- | --- | --- | --- | --- |
| 3–4 fold | 72 | 7.9 ± 1.5 | 4.3 |  |  |  | C=C1CC[C@H](O)C/C1=C/C=C1\CCC[C@@]2(C)[C@H]1CC[C@@H]2[C@@](C)(O)CCOC(C)C [compound 13] | 82.4 ± 3.1 |  |  |  |  |
|  |  | 34.8 ± 9.4 |  | over 17 fold | 13 | 21.1 | C=C1CC[C@H](O)C/C1=C/C=C1\CCC[C@@]2(C)[C@H]1CC[C@@H]2[C@@](C)(O)CCCC(C)C [20S(OH)D3, 20S-hydroxyvitamin D3] | 51.7 ± 4.6 | does not cause hypercalcemia | does not cause hypercalcemia | suppressive effects | 48 |

— article PMC5784132, “Investigation of 20S-hydroxyvitamin D3 analogs and their 1α-OH derivatives as potent vitamin D receptor agonists with anti-inflammatory activities” (Scientific Reports, 2018)
